# Reference: ChEMBL document CHEMBL1146736, “Simple aromatic compounds containing propenone moiety show considerable dual COX/5-LOX inhibitory activities” (Bioorg Med Chem Lett, 2004)
# Columns and labels:
# [1] = target: T1, Prostaglandin G/H synthase 1 (Mus musculus, UniProt P22437); test: Inhibitory activity against murine prostaglandin G/H synthase 1.
# T1 sequence (P22437 whole entry): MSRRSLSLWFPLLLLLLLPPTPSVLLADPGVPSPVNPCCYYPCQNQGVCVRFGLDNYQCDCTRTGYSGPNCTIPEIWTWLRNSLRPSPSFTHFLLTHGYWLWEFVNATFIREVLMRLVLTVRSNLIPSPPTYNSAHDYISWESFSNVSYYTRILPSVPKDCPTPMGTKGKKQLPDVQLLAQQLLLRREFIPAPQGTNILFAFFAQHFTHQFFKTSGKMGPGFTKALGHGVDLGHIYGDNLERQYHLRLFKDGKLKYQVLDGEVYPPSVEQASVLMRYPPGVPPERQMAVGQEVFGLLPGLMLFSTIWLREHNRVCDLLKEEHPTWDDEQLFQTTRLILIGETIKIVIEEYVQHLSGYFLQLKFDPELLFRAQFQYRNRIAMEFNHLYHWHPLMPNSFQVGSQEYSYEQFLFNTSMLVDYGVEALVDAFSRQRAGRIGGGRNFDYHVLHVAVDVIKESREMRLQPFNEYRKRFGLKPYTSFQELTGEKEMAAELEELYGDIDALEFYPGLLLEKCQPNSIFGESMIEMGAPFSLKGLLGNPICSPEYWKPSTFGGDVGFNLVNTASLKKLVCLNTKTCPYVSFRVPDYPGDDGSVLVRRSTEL
# [2] = target: T2, Prostaglandin G/H synthase 2 (Mus musculus, UniProt Q05769); test: Inhibitory activity against murine Prostaglandin G/H synthase 2.
# T2 sequence (Q05769 whole entry): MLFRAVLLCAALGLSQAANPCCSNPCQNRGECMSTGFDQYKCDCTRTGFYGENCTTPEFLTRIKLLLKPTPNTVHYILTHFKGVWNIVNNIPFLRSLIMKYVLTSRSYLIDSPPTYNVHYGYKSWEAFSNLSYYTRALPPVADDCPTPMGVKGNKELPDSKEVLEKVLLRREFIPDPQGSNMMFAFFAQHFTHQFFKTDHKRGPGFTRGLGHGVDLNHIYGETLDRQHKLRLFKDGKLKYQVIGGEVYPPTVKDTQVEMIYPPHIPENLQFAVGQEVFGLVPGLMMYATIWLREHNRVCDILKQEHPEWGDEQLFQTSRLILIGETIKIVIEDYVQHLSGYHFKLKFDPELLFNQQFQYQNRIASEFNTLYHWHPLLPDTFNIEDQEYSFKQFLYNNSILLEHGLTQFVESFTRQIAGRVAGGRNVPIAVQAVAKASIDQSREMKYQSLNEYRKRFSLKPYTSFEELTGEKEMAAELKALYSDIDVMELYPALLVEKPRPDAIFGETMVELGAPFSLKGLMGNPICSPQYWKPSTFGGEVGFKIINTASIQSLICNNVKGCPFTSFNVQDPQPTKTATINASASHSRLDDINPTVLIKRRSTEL
# [3] = target: T3, Polyunsaturated fatty acid 5-lipoxygenase (Mus musculus, UniProt P48999); test: Inhibitory activity against murine […].
# T3 sequence (P48999 whole entry): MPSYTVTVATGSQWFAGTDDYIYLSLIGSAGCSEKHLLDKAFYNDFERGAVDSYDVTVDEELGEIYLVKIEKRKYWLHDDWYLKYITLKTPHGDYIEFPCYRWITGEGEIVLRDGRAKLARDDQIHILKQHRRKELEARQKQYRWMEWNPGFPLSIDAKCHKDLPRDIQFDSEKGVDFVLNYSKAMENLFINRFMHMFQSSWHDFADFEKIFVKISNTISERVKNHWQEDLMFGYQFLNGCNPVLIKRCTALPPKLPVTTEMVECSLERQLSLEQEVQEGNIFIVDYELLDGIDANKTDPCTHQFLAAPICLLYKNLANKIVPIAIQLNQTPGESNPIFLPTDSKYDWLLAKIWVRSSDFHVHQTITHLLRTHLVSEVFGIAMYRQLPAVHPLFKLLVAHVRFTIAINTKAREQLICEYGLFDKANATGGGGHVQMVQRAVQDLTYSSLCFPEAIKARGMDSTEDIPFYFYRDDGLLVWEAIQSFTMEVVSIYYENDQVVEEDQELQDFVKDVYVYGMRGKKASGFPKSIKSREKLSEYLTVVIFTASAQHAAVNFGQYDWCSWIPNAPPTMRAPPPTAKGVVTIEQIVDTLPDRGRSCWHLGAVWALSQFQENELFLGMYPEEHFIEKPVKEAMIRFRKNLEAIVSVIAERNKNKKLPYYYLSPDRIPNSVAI
# [4] = target: T1, Prostaglandin G/H synthase 1; test: Inhibitory activity against Prostaglandin G/H synthase 1 in mice
# [5] = target: T3, Polyunsaturated fatty acid 5-lipoxygenase; test: Inhibitory activity against […] in mice
# [6] = target: T2, Prostaglandin G/H synthase 2; test: Inhibitory activity against cyclooxygenase-2 in micc
Compound,IC50 [1],IC50 [2],IC50 [3],IC50 [4],IC50 [5],IC50 [6]
O=C(/C=C/c1ccccc1)c1ccccn1,32.5 µM,28.7 µM,8.13 µM,,,
O=C(/C=C/c1ccco1)c1cccnc1,,12 µM,12 µM,59.7 µM,,
O=C(/C=C/c1ccsc1)c1cccs1,59.9 µM,26.7 µM,5.9 µM,,,
O=C(/C=C/c1ccco1)c1ccco1,80.7 µM,29 µM,12.8 µM,,,
O=C(/C=C/c1cccs1)c1ccccc1,46.2 µM,9.02 µM,9.5 µM,,,
O=C(/C=C/c1ccoc1)c1cccnc1,21 µM,7.92 µM,13.4 µM,,,
O=C(/C=C/c1ccco1)c1ccccn1,23.6 µM,7.44 µM,13.5 µM,,,
O=C(/C=C/c1ccsc1)c1cccnc1,13 µM,18.4 µM,,,10 µM,
O=C(/C=C/c1ccoc1)c1ccccn1,23.6 µM,,13.8 µM,,,12 µM
O=C(/C=C/c1ccccn1)c1ccco1,65.3 µM,1.89 µM,0.37 µM,,,
Cc1ccsc1/C=C/C(=O)c1ccccn1,40.1 µM,23.4 µM,6.51 µM,,,
O=C(/C=C/c1ccco1)c1ccc(Cl)s1,57.4 µM,14.1 µM,7.52 µM,,,
O=C(/C=C/c1ccsc1)c1ccccn1,13 µM,5.22 µM,7.6 µM,,,
O=C(/C=C/c1ccco1)c1cccs1,60.7 µM,13.7 µM,14 µM,,,
O=C(/C=C/c1cccs1)c1cccs1,9.01 µM,3.4 µM,4.8 µM,,,
O=C(/C=C/c1ccccc1)c1ccccc1 [CHALCONE],22.1 µM,11.2 µM,12.2 µM,,,
CC1=C(C)C(=O)C(CCCCC#CCCCC#CCO)=C(C)C1=O [DOCEBENONE],,,0.032 µM,,,
CS(=O)(=O)Nc1ccc([N+](=O)[O-])cc1OC1CCCCC1 [NS-398],1.67 µM,,,,,
